Measurements from US20210369812A1, “OSTEOINDUCTIVE PEPTIDES, COMPOSITIONS, IMPLANTS, AND METHODS OF USE” (The Board of Regents of the University of Oklahoma, priority 2018, published 2021).

Tested on: rat radial bone defect model
Assay: Histological staining (HE, Von Kossa) of implanted scaffolds
Assay type: in vivo
Conditions: 4-week implants
Excerpt: After 4 weeks and 12 weeks, animals (N=5) were euthanized by CO2 asphyxiation. The sections of the arms containing the implant (at the radius bone) were then cut way from the rest of the animal using bone cutters. The 4-week implant samples were fixed in 10% (w/v) neutral formalin solution for 4 days. The 12-week samples were fixed in 4% paraformaldehyde for 4 days. Paraformaldehyde was used as it can produce better CD31 vascularization stains relative to fixing with formalin. The samples were then placed in a solution of 70% ethanol to 30% water (v/v).
The tissue sections were deparaffinized and hydrated with distilled water. Hematoxylin was applied to the sample with enough volume to cover the tissue section followed by incubation for 5 min. The mounted tissue slide was then rinsed in 2 changes of distilled water (sections were allowed to soak for 15 sec on each exchange of water). Enough Bluing Reagent was then added to the tissue section to completely cover it followed by incubation for 10-15 sec. The slides were then rinsed again in 2 changes of distilled water allowing 15 sec of contact with the water each time. The slides were then dipped in 100% ethanol for 10 sec. The excess ethanol was blotted off. Enough Eosin Y Solution was then added to completely cover the tissue section followed by incubation for 2-3 min. The slides were then rinsed in 100% ethanol for 10 sec. […]

VHVPLHRGAVSA (Completely synthesized in the lab - Ph.D.-12 Phage Display Peptide Library Kit (New England Biolabs))
New bone tissue / calcium deposits (Von Kossa stain): New bone tissue was observed to be best
